Measurements taken from patent US8883792B2, “Substituted isoquinoline derivative” (D. Western Therapeutics Institute, Inc., priority 2010, dated 2014).
Structures can show the parent of a compound that is named as a salt.

System: rabbits (New Zealand White)
Assay: Ocular hypotensive effect in rabbits
Type: in vivo, rabbit
Conditions: male New Zealand White rabbits, 0.04 mL eye drop, concentration of 1% (w/v) or lower, maximum ocular hypotensive rate vs vehicle-treated contralateral eye
Protocol: The compound of the present invention was administered to rabbits (New Zealand White, sex: male, 3 to 6 per group) and evaluated for its ocular hypotensive effect.
Each test compound was dissolved in a vehicle 1 (1.04 g of sodium dihydrogen phosphate dihydrate and 0.5 g of sodium chloride dissolved in purified water and then adjusted to pH 7.0 with sodium hydroxide to make the total amount to 100 mL) or a vehicle 2 (2% (w/v) aqueous boric acid solution) to prepare a test compound solution with a predetermined concentration.
The intraocular pressures of the rabbits were measured using Tiolat TonoVet handheld tonometer immediately before administration of test compound. The test compound solution and the vehicle were dropped at a volume of 0.04 mL to one eye and the contralateral eye, respectively, and the intraocular pressures were measured over time in the same way as above. The rate of the intraocular pressure of the eye receiving the test compound solution to that of the eye receiving the vehicle was calculated as an ocular hypotensive rate.

Compound	Ocular hypotensive activity
C[C@H](CC(N)CCc1ccccc1)NS(=O)(=O)c1ccc2cnccc2c1 (single isomer, unassigned; diastereomer a) [Example 118]	++ (maximum ocular hypotensive rate of 15% or more)
C[C@H](CC(N)CCc1ccccc1)NS(=O)(=O)c1ccc2cnccc2c1 (single isomer, unassigned; diastereomer b) [Example 119]	++ (maximum ocular hypotensive rate of 15% or more)
C[C@H](CNCc1ccccc1)NS(=O)(=O)c1ccc2cnccc2c1 [Example 1, (R)—N-{1-(benzylamino)propan-2-yl}isoquinoline-6-sulfonamide dihydrochloride]	++ (maximum ocular hypotensive rate of 15% or more)
CNC[C@@H](C)NS(=O)(=O)c1ccc2cnccc2c1 [Example 2, (R)—N-{1-(methylamino)propan-2-yl}isoquinoline-6-sulfonamide dihydrochloride]	++ (maximum ocular hypotensive rate of 15% or more)
CCNC[C@@H](C)NS(=O)(=O)c1ccc2cnccc2c1 [Example 3, (R)—N-{1-(ethylamino)propan-2-yl}isoquinoline-6-sulfonamide dihydrochloride]	++ (maximum ocular hypotensive rate of 15% or more)
CCCNC[C@@H](C)NS(=O)(=O)c1ccc2cnccc2c1 [Example 4, (R)—N-{1-(propylamino)propan-2-yl}isoquinoline-6-sulfonamide dihydrochloride]	++ (maximum ocular hypotensive rate of 15% or more)
CCCCNC[C@H](C)NS(=O)(=O)c1ccc2cnccc2c1 [Example 6, (S)—N-{1-(butylamino)propan-2-yl}isoquinoline-6-sulfonamide dihydrochloride]	++ (maximum ocular hypotensive rate of 15% or more)
CC=CCNC[C@@H](C)NS(=O)(=O)c1ccc2cnccc2c1 [Example 7, (R)—N-{1-(but-2-enylamino)propan-2-yl}isoquinoline-6-sulfonamide dihydrochloride]	++ (maximum ocular hypotensive rate of 15% or more)
CC=CCNC[C@H](C)NS(=O)(=O)c1ccc2cnccc2c1 [Example 8, (S)—N-{1-(but-2-enylamino)propan-2-yl}isoquinoline-6-sulfonamide dihydrochloride]	++ (maximum ocular hypotensive rate of 15% or more)
C=CCNC[C@@H](C)NS(=O)(=O)c1ccc2cnccc2c1 [Example 9, (R)—N-{1-(allylamino)propan-2-yl}isoquinoline-6-sulfonamide dihydrochloride]	++ (maximum ocular hypotensive rate of 15% or more)
C=CCNCCNS(=O)(=O)c1ccc2cnccc2c1 [Example 10, N-{2-(allylamino)ethyl}isoquinoline-6-sulfonamide dihydrochloride]	++ (maximum ocular hypotensive rate of 15% or more)
CCCCN[C@H](C)CNS(=O)(=O)c1ccc2cnccc2c1 [Example 11, (R)—N-{2-(butylamino)propyl}isoquinoline-6-sulfonamide dihydrochloride]	+ (maximum ocular hypotensive rate of 5% or more and less than 15%)
CCCNCC[C@@H](C)NS(=O)(=O)c1ccc2cnccc2c1 [Example 12, (R)—N-{4-(propylamino)butan-2-yl}isoquinoline-6-sulfonamide dihydrochloride]	++ (maximum ocular hypotensive rate of 15% or more)
C[C@H](CN1CCNCC1)NS(=O)(=O)c1ccc2cnccc2c1 [Example 13, (R)—N-{1-(piperazin-1-yl)propan-2-yl}isoquinoline-6-sulfonamide trihydrochloride]	+ (maximum ocular hypotensive rate of 5% or more and less than 15%)
CC(C)CNC[C@@H](C)NS(=O)(=O)c1ccc2cnccc2c1 [Example 14, (R)—N-{1-(isobutylamino)propan-2-yl}isoquinoline-6-sulfonamide dihydrochloride]	++ (maximum ocular hypotensive rate of 15% or more)
C[C@H](CNC1CC1)NS(=O)(=O)c1ccc2cnccc2c1 [Example 15, (R)—N-{1-(cyclopropylamino)propan-2-yl}isoquinoline-6-sulfonamide dihydrochloride]	++ (maximum ocular hypotensive rate of 15% or more)
C[C@H](CNCC1CCC1)NS(=O)(=O)c1ccc2cnccc2c1.Cl [Example 16, (R)—N-{1-(cyclobutylmethylamino)propan-2-yl}isoquinoline-6-sulfonamide hydrochloride]	++ (maximum ocular hypotensive rate of 15% or more)

Compound	Ocular hypotensive activity
C[C@H](CNCC(C)(C)C)NS(=O)(=O)c1ccc2cnccc2c1 [Example 17, (R)—N-{1-(neopentylamino)propan-2-yl}isoquinoline-6-sulfonamide dihydrochloride]	++ (maximum ocular hypotensive rate of 15% or more)
C[C@H](CNCC1CC1)NS(=O)(=O)c1ccc2cnccc2c1 [Example 18, (R)—N-{1-(cyclopropylmethylamino)propan-2-yl}isoquinoline-6-sulfonamide dihydrochloride]	++ (maximum ocular hypotensive rate of 15% or more)
CCCCCNC[C@@H](C)NS(=O)(=O)c1ccc2cnccc2c1 [Example 19, (R)—N-{1-(pentylamino)propan-2-yl}isoquinoline-6-sulfonamide dihydrochloride]	++ (maximum ocular hypotensive rate of 15% or more)
CCC(C)CNC[C@@H](C)NS(=O)(=O)c1ccc2cnccc2c1 (stereo partly drawn) [Example 20, N-(2R)-{1-(methylbutylamino)propan-2-yl}isoquinoline-6-sulfonamide hydrochloride]	++ (maximum ocular hypotensive rate of 15% or more)
CC(C)CCNC[C@@H](C)NS(=O)(=O)c1ccc2cnccc2c1.Cl [Example 21, (R)—N-{1-(isopentylamino)propan-2-yl}isoquinoline-6-sulfonamide hydrochloride]	+ (maximum ocular hypotensive rate of 5% or more and less than 15%)
CCCCCCNC[C@@H](C)NS(=O)(=O)c1ccc2cnccc2c1 [Example 22, (R)—N-{1-(hexylamino)propan-2-yl}isoquinoline-6-sulfonamide dihydrochloride]	++ (maximum ocular hypotensive rate of 15% or more)
C[C@@H](CNCCc1ccccc1)NS(=O)(=O)c1ccc2cnccc2c1 [Example 24, (S)—N-{1-(phenethylamino)propan-2-yl}isoquinoline-6-sulfonamide dihydrochloride]	++ (maximum ocular hypotensive rate of 15% or more)
C[C@H](CNC[C@@H](C)c1ccccc1)NS(=O)(=O)c1ccc2cnccc2c1 [Example 26, N—[(R)-1-{(S)-2-phenylpropylamino}propan-2-yl]isoquinoline-6-sulfonamide dihydrochloride]	++ (maximum ocular hypotensive rate of 15% or more)
CC(C)[C@H](CNCCc1ccccc1)NS(=O)(=O)c1ccc2cnccc2c1 [Example 27, (R)—N-{3-methyl-1-(phenethylamino)butan-2-yl}isoquinoline-6-sulfonamide dihydrochloride]	++ (maximum ocular hypotensive rate of 15% or more)
COc1ccccc1CCNC[C@@H](C)NS(=O)(=O)c1ccc2cnccc2c1 [Example 28, (R)—N-{1-(2-methoxyphenethylamino)propan-2-yl}isoquinoline-6-sulfonamide dihydrochloride]	++ (maximum ocular hypotensive rate of 15% or more)
COc1cccc(CCNC[C@@H](C)NS(=O)(=O)c2ccc3cnccc3c2)c1 [Example 29, (R)—N-{1-(3-methoxyphenethylamino)propan-2-yl}isoquinoline-6-sulfonamide dihydrochloride]	++ (maximum ocular hypotensive rate of 15% or more)
COc1ccc(CCNC[C@@H](C)NS(=O)(=O)c2ccc3cnccc3c2)cc1 [Example 30, (R)—N-{1-(4-methoxyphenethylamino)propan-2-yl}isoquinoline-6-sulfonamide dihydrochloride]	++ (maximum ocular hypotensive rate of 15% or more)
C[C@H](CNCCc1ccccc1F)NS(=O)(=O)c1ccc2cnccc2c1 [Example 31, (R)—N-{1-(2-fluorophenethylamino)propan-2-yl}isoquinoline-6-sulfonamide dihydrochloride]	++ (maximum ocular hypotensive rate of 15% or more)
Cl.O=S(=O)(NCCNCCc1ccccc1)c1ccc2cnccc2c1 [Example 32, N-{2-(phenethylamino)ethyl}isoquinoline-6-sulfonamide hydrochloride]	++ (maximum ocular hypotensive rate of 15% or more)
C[C@H](CNCCC1CCCCC1)NS(=O)(=O)c1ccc2cnccc2c1 [Example 33, (R)—N-{1-(2-cyclohexylethylamino)propan-2-yl}isoquinoline-6-sulfonamide dihydrochloride]	++ (maximum ocular hypotensive rate of 15% or more)
C[C@H](CNCCCc1ccccc1)NS(=O)(=O)c1ccc2cnccc2c1 [Example 34, (R)—N-{1-(3-phenylpropylamino)propan-2-yl}isoquinoline-6-sulfonamide dihydrochloride]	++ (maximum ocular hypotensive rate of 15% or more)
C[C@@H](CNCCc1c[nH]c2ccccc12)NS(=O)(=O)c1ccc2cnccc2c1.Cl [Example 37, (S)—N-[1-{2-(1H-indol-3-yl)ethylamino}propan-2-yl]isoquinoline-6-sulfonamide hydrochloride]	++ (maximum ocular hypotensive rate of 15% or more)
